For one assay, the target named is IDH1 R132H enzyme (Homo sapiens (Human), UniProt O75874, R132H). Nature of the assay: Mutant IDH1 R132H biochemical assay. Conditions: NADPH consumption, luminescent readout; 1.5 nM enzyme, 250 μM α-KG, 1 μM NADPH, 30 minutes, 32° C.; test range 0.002-10 μM. The procedure: mIDH1 catalyzes the NADPH-dependent reduction of alpha-ketoglutarate (α-KG) to (2R)-2-hydroxyglutarate (2-HG). NADPH consumption was measured by luminescent readout.
The biochemical reactions were performed at 32° C. in 384-well plates using a reaction volume of 41 μl and the following assay buffer conditions: 50 mM Tris pH 7.5, 100 mM NaCl, 20 mM MgCl2, 0.05% BSA, 0.01% Brij, 1 μM NADPH, and 250 μM α-KG. […] Test compounds were used in a concentration range between 0.002 and 10 μM. The final DMSO concentration was 2.4%.
The reaction was incubated for 30 minutes, then 40 μl of detection mix (0.75 μg/ml Luciferase, 0.02 U/ml Oxidoreductase, 4 μg/ml FMN, 2 μl/ml Decanal/Ethanol, 50 mM Tris pH 7.5, 0.5% Glycerin, 0.01% Tween-20, 0.05% BSA) was added. Luminescence was measured on a luminescent reader (10 seconds measuring time, 1 second integration period, 30% sensitivity). The decrease in luminescence is proportional to mIDH1 activity. IC50 values are determined by interpolation from plots of relative luminescence versus inhibitor concentration.

Assay [1] has as its target mutated isocitrate dehydrogenase (mIDH) protein overexpressed in LN229 R132H cells (Homo sapiens (Human), UniProt O75874, R132H). Nature of the assay: Mutant IDH1 cellular assay (2-HG in medium of LN229 R132H cells). The class given is cell-based. To be noted: 24 hours, fluorescence readout. The protocol: Mutant IDH1 Cellular Assay
Levels of (2R)-2-hydroxyglutarate (2HG) were measured in medium of a cell line with overexpression of mutated isocitrate dehydrogenase (mIDH) protein. mIDH catalyzes the NADPH-dependent reduction of alpha-ketoglutarate to 2-HG. Cells (LN229 R132H, Mohrenz et al., Apoptosis (2013) 18:1416-1425) were grown in DMEM containing 10% FCS. They were harvested by trypsin and seeded into 96-well plates. Cells were incubated overnight at 37° C. in 5% CO2. The next day test compounds were added to each cell well. The final concentration of DMSO was 0.1% and DMSO controls were included. The plates were then placed in an incubator for 24 hours.
2-HG was measured according to Balss et al. (Acta Neuropathol (2012) 124: 883-891). Briefly, HClO4 was added to each well and the plates were centrifuged. Aliquots are removed and incubated with hydroxyglutarate dehydrogenase (HGDH), diaphorase, NAD+, and resazurin. The conversion of resazurin to resorufin was detected by fluorescence spectroscopy at Ex 540 nm Em 600 nm. The increase in fluorescence is proportional to 2-HG production. IC50 values are determined by interpolation from plots of relative fluorescence vs inhibitor concentration.

Sequence of mutated isocitrate dehydrogenase (mIDH) protein overexpressed in LN229 R132H cells (O75874 whole entry R132H): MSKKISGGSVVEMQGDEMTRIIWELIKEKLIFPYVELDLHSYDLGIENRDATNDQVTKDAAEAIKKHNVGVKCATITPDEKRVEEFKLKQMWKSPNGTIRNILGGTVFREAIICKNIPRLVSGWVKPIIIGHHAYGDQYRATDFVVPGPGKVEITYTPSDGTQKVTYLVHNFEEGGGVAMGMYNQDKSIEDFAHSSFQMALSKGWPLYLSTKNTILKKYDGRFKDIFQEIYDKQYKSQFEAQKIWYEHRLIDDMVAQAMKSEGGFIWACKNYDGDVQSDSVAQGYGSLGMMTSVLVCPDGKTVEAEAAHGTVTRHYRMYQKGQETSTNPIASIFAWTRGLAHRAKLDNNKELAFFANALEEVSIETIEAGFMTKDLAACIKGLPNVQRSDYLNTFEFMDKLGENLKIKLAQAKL
Sequence of IDH1 R132H enzyme (O75874 whole entry R132H): as above

As to `Cc1noc(C)c1-c1ccc2c(c1)nc(Nc1ccc(OC(F)(F)F)cc1)n2[C@H]1C[C@@H](C)CC(C)(C)C1` (racemic) [Example 2-1, (±) 5-(3,5-dimethyl-1,2-oxazol-4-yl)-N-[4-(trifluoromethoxy)phenyl]-1-[(cis)-3,3,5-trimethylcyclohexyl]-1H-benzimidazol-2-amine], the figures for the IC50 (against IDH1 R132H enzyme; in assay [1]) were 120 nM and 900 nM, respectively. In the same order, the values of `C[C@@H]1C[C@H](n2c(Nc3ccc(OC(F)(F)F)cc3)nc3cc(-c4cccc(C(=O)O)c4)ccc32)CC(C)(C)C1` (racemic) [Example 2-2, (±) 3-(2-{[4-(trifluoromethoxy)phenyl]amino}-1-[(cis)-3,3,5-trimethylcyclohexyl]-1H-benzimidazol-5-yl)benzoic acid] are 70 nM and 360 nM. `C[C@@H]1C[C@H](n2c(Nc3ccc(OC(F)(F)F)cc3)nc3cc(-c4ccc(C(=O)O)cc4)ccc32)CC(C)(C)C1` (racemic) [Example 2-3, (±) 4-(2-{[4-(trifluoromethoxy)phenyl]amino}-1-[(cis)-3,3,5-trimethylcyclohexyl]-1H-benzimidazol-5-yl)benzoic acid] yielded an IC50 on IDH1 R132H enzyme of 460 nM. At IDH1 R132H enzyme, `COC(=O)c1cccc(-c2ccc3c(c2)nc(Nc2ccc(OC(F)(F)F)cc2)n3[C@H]2C[C@@H](C)CC(C)(C)C2)c1` (racemic) [Example 2-15, (±) Methyl 3-(2-{[4-(trifluoromethoxy)phenyl]amino}-1-[(cis)-3,3,5-trimethylcyclohexyl]-1H-benzimidazol-5-yl)benzoate] came in with a 50% inhibitory concentration (IC50) of 1500 nM. Still for that read-out and setting: the figure for `COC(=O)c1ccc(-c2ccc3c(c2)nc(Nc2ccc(OC(F)(F)F)cc2)n3[C@H]2C[C@@H](C)CC(C)(C)C2)cc1` (racemic) [Example 2-18, (±) Methyl 4-(2-{[4-(trifluoromethoxy)phenyl]amino}-1-[(cis)-3,3,5-trimethylcyclohexyl]-1H-benzimidazol-5-yl)benzoate] is 4000 nM; for `C[C@H]1C[C@H](n2c(Nc3ccc(OC(F)(F)F)cc3)nc3cc(-c4nnn[nH]4)ccc32)CC(C)(C)C1` (racemic) [Example 2-27, (±) 5-(1H-tetrazol-5-yl)-N-[4-(trifluoromethoxy)phenyl]-1-[(trans)-3,3,5-trimethylcyclohexyl]-1H-benzimidazol-2-amine] it is 1800 nM. Still for that read-out and setting: the value for `C[C@@H]1C[C@H](n2c(Nc3ccc(OC(F)(F)F)cc3)nc3cc(-c4cc(F)c(O)c(F)c4)ccc32)CC(C)(C)C1` (racemic) [Example 2-33, (±) 2,6-difluoro-4-(2-{[4-(trifluoromethoxy)phenyl]amino}-1-[(cis)-3,3,5-trimethylcyclohexyl]-1H-benzimidazol-5-yl)phenol] was 670 nM. On the same count and under the same terms, the value for `Cc1cc(-c2ccc3c(c2)nc(Nc2ccc(OC(F)(F)F)cc2)n3[C@H]2C[C@@H](C)CC(C)(C)C2)cc(C)c1O` (racemic) [Example 2-34, (±) 2,6-dimethyl-4-(2-{[4-(trifluoromethoxy)phenyl]amino}-1-[(cis)-3,3,5-trimethylcyclohexyl]-1H-benzimidazol-5-yl)phenol] was 180 nM; that for `CCOc1noc(C)c1-c1ccc2c(c1)nc(Nc1ccc(OC(F)(F)F)cc1)n2[C@H]1C[C@@H](C)CC(C)(C)C1` (racemic) [Example 2-35, (±) 5-(3-ethoxy-5-methyl-1,2-oxazol-4-yl)-N-[4-(trifluoromethoxy)phenyl]-1-[(cis)-3,3,5-trimethylcyclohexyl]-1H-benzimidazol-2-amine] was 240 nM. With `Cc1noc(C)c1-c1ccc2c(c1)nc(Nc1ccc(OC(F)(F)F)cc1)n2[C@H]1C[C@@H](C)CC(C)(C)C1` (single isomer, unassigned) [Example 2-1-1, 5-(3,5-dimethyl-1,2-oxazol-4-yl)-N-[4-(trifluoromethoxy)phenyl]-1-[(cis)-3,3,5-trimethylcyclohexyl]-1H-benzimidazol-2-amine], at IDH1 R132H enzyme, inhibition was half-maximal at 240 nM (IC50). With `Cc1noc(C)c1-c1ccc2c(c1)nc(Nc1ccc(OC(F)(F)F)cc1)n2[C@H]1C[C@@H](C)CC(C)(C)C1` (single isomer, unassigned) [Example 2-1-2, 5-(3,5-dimethyl-1,2-oxazol-4-yl)-N-[4-(trifluoromethoxy)phenyl]-1-[(cis)-3,3,5-trimethylcyclohexyl]-1H-benzimidazol-2-amine], 70 nM corresponded to half-maximal inhibition on IDH1 R132H enzyme (IC50). As to `C[C@H]1C[C@@H](n2c(Nc3ccc(OC(F)(F)F)cc3)nc3cc(-c4cn[nH]c4)ccc32)CC(C)(C)C1` (stereo in doubt) [Example 2-4], the IC50 against IDH1 R132H enzyme was determined as 80 nM; in assay [1], 600 nM. As to `Cc1n[nH]c(C)c1-c1ccc2c(c1)nc(Nc1ccc(OC(F)(F)F)cc1)n2[C@@H]1C[C@H](C)CC(C)(C)C1` (stereo in doubt) [Example 2-5-1], 670 nM corresponded to half-maximal inhibition against IDH1 R132H enzyme (IC50). Consider `Cc1n[nH]c(C)c1-c1ccc2c(c1)nc(Nc1ccc(OC(F)(F)F)cc1)n2[C@H]1C[C@@H](C)CC(C)(C)C1` (stereo in doubt) [Example 2-5-2], for which the 50% inhibitory concentration (IC50) at IDH1 R132H enzyme is 1540 nM; in assay [1], 1500 nM.

`Cc1n[nH]c(C)c1-c1ccc2c(c1)nc(Nc1ccc(OC(F)(F)F)cc1)n2[C@@H]1C[C@H](C)CC(C)(C)C1` (stereo in doubt) [Example 2-5]: the IC50 on IDH1 R132H enzyme is 90 nM; in assay [1], 4000 nM. In the same order, the values of `Cc1n[nH]cc1-c1ccc2c(c1)nc(Nc1ccc(OC(F)(F)F)cc1)n2[C@@H]1C[C@H](C)CC(C)(C)C1` (stereo in doubt) [Example 2-7] are 110 nM and 1200 nM. Regarding `C[C@H]1C[C@@H](n2c(Nc3ccc(OC(F)(F)F)cc3)nc3cc(-c4ccn[nH]4)ccc32)CC(C)(C)C1` (stereo in doubt) [Example 2-8], the IC50 was 130 nM at IDH1 R132H enzyme and 2000 nM in assay [1]. For `C[C@H]1C[C@@H](n2c(Nc3ccc(OC(F)(F)F)cc3)nc3cc(-c4cnoc4)ccc32)CC(C)(C)C1` (stereo in doubt) [Example 2-9], in that order: 180 nM and 2000 nM. Turning to `Cc1cc(-c2ccc3c(c2)nc(Nc2ccc(OC(F)(F)F)cc2)n3[C@@H]2C[C@H](C)CC(C)(C)C2)n(C)n1` (stereo in doubt) [Example 2-12-1], the half-maximal inhibitory concentration (IC50) against IDH1 R132H enzyme is 4300 nM.

In turn, `Cc1cc(-c2ccc3c(c2)nc(Nc2ccc(OC(F)(F)F)cc2)n3[C@H]2C[C@@H](C)CC(C)(C)C2)n(C)n1` (stereo in doubt) [Example 2-12-2] had an IC50 at IDH1 R132H enzyme of 1600 nM.

At IDH1 R132H enzyme, `C[C@H]1C[C@@H](n2c(Nc3ccc(OC(F)(F)F)cc3)nc3cc(-c4cnn(C)c4)ccc32)CC(C)(C)C1` (stereo in doubt) [Example 2-13-1] yielded a concentration for half-maximal inhibition (IC50) of 240 nM.

On to `C[C@@H]1C[C@H](n2c(Nc3ccc(OC(F)(F)F)cc3)nc3cc(-c4cnn(C)c4)ccc32)CC(C)(C)C1` (stereo in doubt) [Example 2-13-2], for which, at IDH1 R132H enzyme, the IC50 stood at 1000 nM. Against the preceding compound, the IC50 is about 4.2-fold higher. Take `COc1cc(-c2ccc3c(c2)nc(Nc2ccc(OC(F)(F)F)cc2)n3[C@@H]2C[C@H](C)CC(C)(C)C2)ccn1` (stereo in doubt) [Example 2-14]: the IC50 on IDH1 R132H enzyme stood at 1300 nM. Same read-out and setting: the figure for `C[C@H]1C[C@@H](n2c(Nc3ccc(OC(F)(F)F)cc3)nc3cc(-c4cn(C)nc4C(F)(F)F)ccc32)CC(C)(C)C1` (stereo in doubt) [Example 2-16-1] is 7800 nM; for `C[C@@H]1C[C@H](n2c(Nc3ccc(OC(F)(F)F)cc3)nc3cc(-c4cn(C)nc4C(F)(F)F)ccc32)CC(C)(C)C1` (stereo in doubt) [Example 2-16-2] it is 780 nM; for `C[C@H]1C[C@@H](n2c(Nc3ccc(OC(F)(F)F)cc3)nc3cc(-c4cn(C)nc4C(F)(F)F)ccc32)CC(C)(C)C1` (stereo in doubt) [Example 2-16] it is 290 nM. On the same count and under the same terms, the value for `C[C@H]1C[C@@H](n2c(Nc3ccc(OC(F)(F)F)cc3)nc3cc(-c4ccc(C(N)=O)cc4)ccc32)CC(C)(C)C1` (stereo in doubt) [Example 2-17] was 440 nM. Compound `C[C@H]1C[C@@H](n2c(Nc3ccc(OC(F)(F)F)cc3)nc3cc(-c4ccnn4C)ccc32)CC(C)(C)C1` (stereo in doubt) [Example 2-20] displayed an IC50 in assay [1] of 4000 nM. `Cc1nnc(-c2ccc3c(c2)nc(Nc2ccc(OC(F)(F)F)cc2)n3C2CC(C)(C)CC(C)(C)C2)o1` [Example 2-25, 5-(5-Methyl-1,3,4-oxadiazol-2-yl)-1-(3,3,5,5-tetramethylcyclohexyl)-N-[4-(trifluoromethoxy)phenyl]-1H-benzimidazol-2-amine] had an IC50 against IDH1 R132H enzyme of 130 nM.

In general, IC50 refers to the concentration at which inhibition is half-maximal.

Source of the values: patent publication US10137110B2, “1-cyclohexyl-2-phenylaminobenzimidazoles as mIDH1 inhibitors for the treatment of tumors” (Bayer Pharma Aktiengesellschaft, priority 2014, dated 2018).
